{"source": "patent US20050026949A1", "about": "“Methods of therapeutic treatment using amounts of retinoids without regard to body weight” (Allergan, Inc., priority 2003, published 2005)", "key": {"[1]": {"tested_on": "patients treated for psoriasis", "test": "Phase 3 studies of orally administered tazarotene for psoriasis: adverse events (Table 1)", "type": "in vivo, human", "settings": "Taz 4.5 mg", "protocol": "A series of Phase 3 studies are conducted on orally administered tazarotene for the treatment of psoriasis. Adverse events (side effects) are monitored. In addition, published data for acitretin's side effects are also considered."}, "[2]": {"tested_on": "AP1", "test": "AP1 antagonism"}, "[3]": {"settings": "Study 3, treated with Tazarotene for 3 months (N = 220)"}, "[4]": {"settings": "Study 3, treated with Tazarotene for 6 months (N = 92)"}, "[5]": {"settings": "combined data from Studies 1 and 2 (N = 348)"}}, "data": [{"compound": "CCOC(=O)c1ccc(C#Cc2ccc3c(c2)C(C)(C)CCS3)nc1", "note": "[tazarotene]", "values": [{"measurement": "Alopecia", "setting": "[1]; [3]", "value": "1 (0.5) NUMBER OF (%) OF PATIENTS"}, {"measurement": "Arthralgia", "setting": "[1]; [3]", "value": "28 (12.7) NUMBER OF (%) OF PATIENTS"}, {"measurement": "Atrophy of skin", "setting": "[1]; [3]", "value": "0 (0.0) NUMBER OF (%) OF PATIENTS"}, {"measurement": "Back pain", "setting": "[1]; [3]", "value": "7 (3.2) NUMBER OF (%) OF PATIENTS"}, {"measurement": "Cheilitis", "setting": "[1]; [3]", "value": "149 (67.7) NUMBER OF (%) OF PATIENTS"}, {"measurement": "Dry Skin", "setting": "[1]; [3]", "value": "47 (21.4) NUMBER OF (%) OF PATIENTS"}, {"measurement": "Dry mouth/Oral dryness", "setting": "[1]; [3]", "value": "11 (5.0) NUMBER OF (%) OF PATIENTS"}, {"measurement": "Epistaxis", "setting": "[1]; [3]", "value": "1 (0.5) NUMBER OF (%) OF PATIENTS"}, {"measurement": "Erythematous rash/Erythema", "setting": "[1]; [3]", "value": "0 (0.0) NUMBER OF (%) OF PATIENTS"}, {"measurement": "Hyperesthesia", "setting": "[1]; [3]", "value": "0 (0.0) NUMBER OF (%) OF PATIENTS"}, {"measurement": "Nail Disorder", "setting": "[1]; [3]", "value": "1 (0.5) NUMBER OF (%) OF PATIENTS"}, {"measurement": "Paresthesia", "setting": "[1]; [3]", "value": "3 (1.4) NUMBER OF (%) OF PATIENTS"}, {"measurement": "Paronychia/Nail disorder", "setting": "[1]; [3]", "value": "1 (0.5) NUMBER OF (%) OF PATIENTS"}, {"measurement": "Pruritus", "setting": "[1]; [3]", "value": "11 (5.0) NUMBER OF (%) OF PATIENTS"}, {"measurement": "Rhinitis", "setting": "[1]; [3]", "value": "0 (0.0) NUMBER OF (%) OF PATIENTS"}, {"measurement": "Rigors/Chills", "setting": "[1]; [3]", "value": "1 (0.5) NUMBER OF (%) OF PATIENTS"}, {"measurement": "Skin peeling/Desquamation", "setting": "[1]; [3]", "value": "3 (1.4) NUMBER OF (%) OF PATIENTS"}, {"measurement": "Sticky skin/Skin disorder", "setting": "[1]; [3]", "value": "0 (0.0) NUMBER OF (%) OF PATIENTS"}, {"measurement": "Xerophthalmia/Eye disorder", "setting": "[1]; [3]", "value": "3 (1.4) NUMBER OF (%) OF PATIENTS"}, {"measurement": "Alopecia", "setting": "[1]; [4]", "value": "5 (5.4) NUMBER OF (%) OF PATIENTS"}, {"measurement": "Arthralgia", "setting": "[1]; [4]", "value": "30 (32.6) NUMBER OF (%) OF PATIENTS"}, {"measurement": "Atrophy of skin", "setting": "[1]; [4]", "value": "0 (0.0) NUMBER OF (%) OF PATIENTS"}, {"measurement": "Back pain", "setting": "[1]; [4]", "value": "10 (10.9) NUMBER OF (%) OF PATIENTS"}, {"measurement": "Cheilitis", "setting": "[1]; [4]", "value": "65 (70.7) NUMBER OF (%) OF PATIENTS"}, {"measurement": "Dry Skin", "setting": "[1]; [4]", "value": "24 (26.1) NUMBER OF (%) OF PATIENTS"}, {"measurement": "Dry mouth/Oral dryness", "setting": "[1]; [4]", "value": "2 (2.2) NUMBER OF (%) OF PATIENTS"}, {"measurement": "Epistaxis", "setting": "[1]; [4]", "value": "0 (0.0) NUMBER OF (%) OF PATIENTS"}, {"measurement": "Erythematous rash/Erythema", "setting": "[1]; [4]", "value": "0 (0.0) NUMBER OF (%) OF PATIENTS"}, {"measurement": "Hyperesthesia", "setting": "[1]; [4]", "value": "0 (0.0) NUMBER OF (%) OF PATIENTS"}, {"measurement": "Nail Disorder", "setting": "[1]; [4]", "value": "1 (1.1) NUMBER OF (%) OF PATIENTS"}, {"measurement": "Paresthesia", "setting": "[1]; [4]", "value": "1 (1.1) NUMBER OF (%) OF PATIENTS"}, {"measurement": "Paronychia/Nail disorder", "setting": "[1]; [4]", "value": "1 (1.1) NUMBER OF (%) OF PATIENTS"}, {"measurement": "Pruritus", "setting": "[1]; [4]", "value": "3 (3.3) NUMBER OF (%) OF PATIENTS"}, {"measurement": "Rhinitis", "setting": "[1]; [4]", "value": "0 (0.0) NUMBER OF (%) OF PATIENTS"}, {"measurement": "Rigors/Chills", "setting": "[1]; [4]", "value": "1 (1.1) NUMBER OF (%) OF PATIENTS"}, {"measurement": "Skin peeling/Desquamation", "setting": "[1]; [4]", "value": "1 (1.1) NUMBER OF (%) OF PATIENTS"}, {"measurement": "Sticky skin/Skin disorder", "setting": "[1]; [4]", "value": "0 (0.0) NUMBER OF (%) OF PATIENTS"}, {"measurement": "Xerophthalmia/Eye disorder", "setting": "[1]; [4]", "value": "1 (1.1) NUMBER OF (%) OF PATIENTS"}, {"measurement": "Alopecia", "setting": "[1]; [5]", "value": "1 (0.3) NUMBER OF (%) OF PATIENTS"}, {"measurement": "Arthralgia", "setting": "[1]; [5]", "value": "60 (17.2) NUMBER OF (%) OF PATIENTS"}, {"measurement": "Atrophy of skin", "setting": "[1]; [5]", "value": "0 (0.0) NUMBER OF (%) OF PATIENTS"}, {"measurement": "Back pain", "setting": "[1]; [5]", "value": "16 (4.6) NUMBER OF (%) OF PATIENTS"}, {"measurement": "Cheilitis", "setting": "[1]; [5]", "value": "228 (65.5) NUMBER OF (%) OF PATIENTS"}, {"measurement": "Dry Skin", "setting": "[1]; [5]", "value": "82 (23.6) NUMBER OF (%) OF PATIENTS"}, {"measurement": "Dry mouth/Oral dryness", "setting": "[1]; [5]", "value": "11 (3.2) NUMBER OF (%) OF PATIENTS"}, {"measurement": "Epistaxis", "setting": "[1]; [5]", "value": "2 (0.6) NUMBER OF (%) OF PATIENTS"}, {"measurement": "Erythematous rash/Erythema", "setting": "[1]; [5]", "value": "2 (0.6) NUMBER OF (%) OF PATIENTS"}, {"measurement": "Hyperesthesia", "setting": "[1]; [5]", "value": "0 (0.0) NUMBER OF (%) OF PATIENTS"}, {"measurement": "Nail Disorder", "setting": "[1]; [5]", "value": "2 (0.6) NUMBER OF (%) OF PATIENTS"}, {"measurement": "Paresthesia", "setting": "[1]; [5]", "value": "7 (2.0) NUMBER OF (%) OF PATIENTS"}, {"measurement": "Paronychia/Nail disorder", "setting": "[1]; [5]", "value": "2 (0.6) NUMBER OF (%) OF PATIENTS"}, {"measurement": "Pruritus", "setting": "[1]; [5]", "value": "21 (6.0) NUMBER OF (%) OF PATIENTS"}, {"measurement": "Rhinitis", "setting": "[1]; [5]", "value": "8 (2.3) NUMBER OF (%) OF PATIENTS"}, {"measurement": "Rigors/Chills", "setting": "[1]; [5]", "value": "9 (2.6) NUMBER OF (%) OF PATIENTS"}, {"measurement": "Skin peeling/Desquamation", "setting": "[1]; [5]", "value": "3 (0.9) NUMBER OF (%) OF PATIENTS"}, {"measurement": "Sticky skin/Skin disorder", "setting": "[1]; [5]", "value": "1 (0.3) NUMBER OF (%) OF PATIENTS"}, {"measurement": "Xerophthalmia/Eye disorder", "setting": "[1]; [5]", "value": "8 (2.3) NUMBER OF (%) OF PATIENTS"}, {"measurement": "AP1 antagonism", "setting": "[2]", "value": "potent AP1 antagonist"}]}]}
